US20250170100A1, “MONOACYLGLYCEROL LIPASE INHIBITORS AND USE THEREOF FOR THE TREATMENT OF ANXIETY AND RELATED CONDITIONS” (Psy Therapeutics, Inc., priority 2021, published 2025)

Assays:
2-AG levels in brain = test: 2-AG estimation in mouse brain after single intraperitoneal administration of Compound 473; type: in vivo, male C57BL/6 mice; settings: IP 20 mg/kg, 0.5 h
Method: (§1) This experiment was performed to determine plasma pharmacokinetics and estimate 2-AG levels in male C57BL/6 mice brain following a single intraperitoneal administration of Compound-473 (Dose: 20 mg/kg).
(§2) Study Design: A total of twelve C57BL/6 male mice were used in this study. Six animals were administered intraperitoneally with solution formulation of PSY-05-00473-002 at 20 mg/kg dose. Six animals were administered vehicle (5% NMP, 5% Solutol HS15 and 90% Normal saline) intraperitoneally at 10 mL/kg dose volume. Blood samples (approximately 60 μL) were collected under light isoflurane anesthesia from a set of six mice at 0.5 h. Plasma was harvested by centrifugation of blood and stored at −70±10° C. until analysis. After blood collection, mice were euthanized by cervical dislocation and brain samples were dissected rapidly and snapped frozen in liquid nitrogen and stored at −80. To homogenize, removed brain samples from the freezer, were divided into two equal hemispheres and weighed while still in frozen condition, and begun homogenization/extraction procedure without allowing the brain samples to thaw. […]
(§3) Analysis: For PK estimation, brain samples were homogenized in 2 volumes of PBS of brain weight. […] Plasma and brain homogenate samples were quantified by fit-for-purpose LC-MS/MS method (LLOQ: 1.02 ng/mL for plasma and 2.03 ng/ml for brain).

human MAGL = human MAGL (Homo sapiens (Human), UniProt Q99685); test: MAGL reversible inhibition assay (washout); type: biochemical; settings: pre-washout compound concentration: 1 μM
Method: The reversible mechanism of MAGL inhibition of a test compound of Formula (I) can be determined. Flag-tagged MAGL enzyme will be immobilized on anti-Flag beads. Immobilized enzyme will be incubated+/−inhibitor at a dose that produces complete inhibition. Colorimetric substrate (4-NPA) will be added and the reaction monitored on a plate reader for 30 minutes to verify complete inhibition. Immobilized enzyme will then be washed thoroughly to remove the inhibitor, and fresh substrate will be added. The reaction will be monitored for an additional 30 minutes; returning enzymatic activity will indicate reversibility of inhibition.
MAGL enzyme was incubated for 30 minutes in the presence of 40× the IC50 concentration of inhibitor. Enzyme+inhibitor mix was then diluted 40-fold so that the final concentration of the inhibitor equaled the IC50 concentration. Substrate was added and the reaction was monitored for 30 minutes.

[1] = Plasma and brain concentrations after single intraperitoneal administration of Compound 473; type: in vivo, male C57BL/6 mice; settings: male, C57BL/6, mouse, IP 20 mg/kg, read-out: Brain/Plasma Ratio (kp) (mean)
Method: as §1, §2, §3

[2] = Pharmacokinetic study of compounds in mice (brain, oral); type: in vivo, male C57BL/6 mice; settings: 5 mg/kg
Method: Healthy male C57BL/6 mice (8-12 weeks old) weighing between 17 to 35 g were procured from Global, India. Temperature and humidity were maintained at 22±3° C. and 30-70%, respectively and illumination was controlled to give a sequence of 12 hr light and 12 hr dark cycle. Temperature and humidity were recorded by auto-controlled data logger system. All the animals were provided laboratory rodent diet. Reverse osmosis water treated with ultraviolet light was provided ad libitum.
Protocol A: Twenty-four male mice were divided into two groups as; Group 1:30 mg/kg/IP, Plasma and brain; Number of animals=12; Animal #1-12. Group 2:30 mg/kg/PO; Plasma and brain; Number of animals=12; Animal #13-24. […] All samples were processed for analysis by protein precipitation using acetonitrile and analyzed with fit-for-purpose LC/MS/MS method (LLOQ-2.02 ng/mL for plasma and 6.06 ng/g for brain). Pharmacokinetic parameters were calculated using the non-compartmental analysis tool of Phoenix WinNonlin®.
Protocol B: Thirty six mice were included into the study and divided in to three groups as Group 1 (n=12), Group 2 (n=12) and Group 3 (n=12) with n=2 mice per time-point design. […] Plasma and brain samples were quantified by fit-for-purpose LC-MS/MS method (LLOQ: 1.01 ng/mL for plasma and 2.02 ng/ml for brain). […]

human recombinant FAAH = human recombinant FAAH (Homo sapiens (Human), UniProt O00519); test: FAAH counter screen (Fatty Acid Amide Hydrolase Inhibitor Screening Assay Kit); type: biochemical; settings: Method B: starting concentration of 10 μM
Method: MAGL inhibitor compounds were also counter-screened for FAAH inhibition potency using the following assay. Assessment of FAAH inhibition was performed using Fatty Acid Amide Hydrolase Inhibitor Screening Assay Kit (Cayman Item No. 10005196) following manufacture's instruction with some modifications. The kit utilizes human recombinant FAAH and the fluorescent substrate, AMC Arachidonoyl amide (AAMCA). 5 μL of assay buffer (125 mM Tris, pH 9.0, 1 mM EDTA, i.e. ethylenediaminetetraacetic acid) was added to a 384-well black plate (Corning, 3573). Test compounds and control inhibitor JZL-195 (Cayman Chemical, 13668) were tested in 10-concentration IC50 mode with 3-fold serial dilution at a starting concentration of 100 μM and 10 μM, respectively. 300 nL or 30 nL of test compounds were delivered into a 384-well black plate (Corning, 3573) using a Labcyte Echo, followed by addition of 15 μL of FAAH enzyme (Cayman, 700302) in assay buffer. After a 5-minute pre-incubation at room temperature, 10 μL of AAMCA was added in assay buffer to start the reaction. Final concentration of FAAH enzyme is not specified and AAMCA substrate was used at the 20 μM. After these dilutions, the final concentration of the test compounds ranged from 100 μM to 5.08 nM or 10 μM down to 0.508 nM. The reaction was allowed to progress for 60 minutes, while the plate was read on an Envision plate reader at an Ex/Em of 350/460 nm with readings every minute. The data was analyzed in Microsoft Excel, using the slope between 30 and 59 minutes. The average of the no-enzyme wells (background) was subtracted from the data. The background-subtracted slope data was converted to % activity using the average of wells with enzyme and DMSO vehicle. IC50 values were calculated using GraphPad software (Sigmoidal dose response, variable slope equation).
Compounds listed in Table D2 were tested in the FAAH Counterscreen of Example 19

Sequence of human MAGL (Q99685 whole entry): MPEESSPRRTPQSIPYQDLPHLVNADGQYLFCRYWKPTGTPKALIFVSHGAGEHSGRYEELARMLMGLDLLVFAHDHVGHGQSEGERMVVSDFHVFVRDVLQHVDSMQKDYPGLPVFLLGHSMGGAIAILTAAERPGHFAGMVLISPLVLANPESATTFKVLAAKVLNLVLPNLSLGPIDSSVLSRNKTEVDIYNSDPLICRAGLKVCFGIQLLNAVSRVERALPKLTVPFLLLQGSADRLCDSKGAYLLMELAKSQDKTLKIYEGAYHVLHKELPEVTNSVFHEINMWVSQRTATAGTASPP
Sequence of human recombinant FAAH (O00519 whole entry): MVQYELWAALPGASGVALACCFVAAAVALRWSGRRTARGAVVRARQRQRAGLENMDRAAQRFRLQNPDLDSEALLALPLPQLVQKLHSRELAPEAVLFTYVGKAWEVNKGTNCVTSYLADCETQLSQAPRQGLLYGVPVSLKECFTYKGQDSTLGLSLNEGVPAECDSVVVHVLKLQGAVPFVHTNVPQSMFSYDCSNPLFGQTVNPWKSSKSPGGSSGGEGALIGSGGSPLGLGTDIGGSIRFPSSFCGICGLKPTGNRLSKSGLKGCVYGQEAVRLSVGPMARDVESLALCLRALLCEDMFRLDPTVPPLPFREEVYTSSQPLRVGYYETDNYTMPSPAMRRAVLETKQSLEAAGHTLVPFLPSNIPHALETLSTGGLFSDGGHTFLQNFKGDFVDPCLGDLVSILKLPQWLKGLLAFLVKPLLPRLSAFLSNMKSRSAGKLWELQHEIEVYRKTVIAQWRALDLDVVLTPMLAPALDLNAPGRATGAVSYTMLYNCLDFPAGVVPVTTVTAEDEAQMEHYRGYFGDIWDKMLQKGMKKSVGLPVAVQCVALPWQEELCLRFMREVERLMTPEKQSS

SMILES: O=C(c1cc(O)ccc1F)N1CC2(CC(n3cc(C(F)(F)F)c(-c4ccccc4F)n3)C2)C1 [Compound 473, (2-fluoro-5-hydroxyphenyl) {6-[3-(o-fluorophenyl)-4-(trifluoromethyl)-1-pyrazolyl]-2-aza-2-spiro[3.3]heptyl}methanone]
- Mean 2AG Concentration in Brain (2-AG levels in brain): 17.38 nmol/g
- A: degree to which MAGL enzymatic activity returned following washout (human MAGL): 41
- Kp at 0.5 h [1]: 1.44
- AUClast [2]: 464.42 ng·h/mL
- Cmax [2]: 171.59 ng/g
- IC50 (human recombinant FAAH): > 10 µM
